ChEMBL document CHEMBL5212743, “Selectivity Literature for EUbOPEN Chemogenomics Library wave 3” (2023)
Each block holds one molecule with its values, some of them ahead of it.

Key:
[1] = target: Aurora kinase A (Homo sapiens) (UniProt O14965); assay: Selectivity interaction (KinomeScan (DiscoverX)) EUB0000178b STK6; details: at 1 µM
[2] = target: T1, Dual specificity mitogen-activated protein kinase kinase 5 (Homo sapiens) (UniProt Q13163); details: at 1 µM
T1 sequence (whole entry): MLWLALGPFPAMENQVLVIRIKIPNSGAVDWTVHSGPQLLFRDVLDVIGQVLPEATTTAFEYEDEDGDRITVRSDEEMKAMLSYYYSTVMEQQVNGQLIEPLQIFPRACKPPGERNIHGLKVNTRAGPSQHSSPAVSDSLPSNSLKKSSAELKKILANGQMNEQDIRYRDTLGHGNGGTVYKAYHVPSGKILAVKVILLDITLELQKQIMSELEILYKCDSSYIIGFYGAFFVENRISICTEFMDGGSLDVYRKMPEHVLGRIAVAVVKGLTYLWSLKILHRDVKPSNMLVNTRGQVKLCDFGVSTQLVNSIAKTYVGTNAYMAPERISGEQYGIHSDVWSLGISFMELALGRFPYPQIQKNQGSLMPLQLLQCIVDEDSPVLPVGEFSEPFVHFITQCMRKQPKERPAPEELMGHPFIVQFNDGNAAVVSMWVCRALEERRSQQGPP

[3] = target: Platelet-derived growth factor receptor beta (Homo sapiens, UniProt P09619); details: at 1 µM
[4] = target: Tyrosine-protein kinase Lck (Homo sapiens, UniProt P06239); details: at 1 µM
[5] = target: Tyrosine-protein kinase receptor Tie-1 (Homo sapiens) (UniProt P35590); details: at 1 µM
[6] = target: BMP-2-inducible protein kinase (Homo sapiens) (UniProt Q9NSY1); assay: Selectivity interaction (KinomeScan (DiscoverX)) EUB0000698a BMP2K; details: at 10 µM
[7] = target: Phosphatidylinositol 4-phosphate 5-kinase type-1 gamma (Homo sapiens) (UniProt O60331); assay: Selectivity interaction (KinomeScan (DiscoverX)) EUB0000698a PIP5K1C; details: at 10 µM
[8] = target: 5'-AMP-activated protein kinase catalytic subunit alpha-1 (Homo sapiens, UniProt Q13131); assay: Selectivity interaction (Kinase panel (University of Dundee)) EUB0000169b PRKAA1; details: at 10 µM
[9] = target: Serine/threonine-protein kinase 16 (Homo sapiens, UniProt O75716); assay: Selectivity interaction (KinomeScan (DiscoverX)) EUB0000138c STK16; details: at 100 nM
[10] = target: T2, Tyrosine-protein kinase JAK3 (Homo sapiens) (UniProt P52333); assay: Selectivity interaction (KinomeScan (DiscoverX)) EUB0000702a JAK3; details: at 1 µM
T2 sequence (whole entry): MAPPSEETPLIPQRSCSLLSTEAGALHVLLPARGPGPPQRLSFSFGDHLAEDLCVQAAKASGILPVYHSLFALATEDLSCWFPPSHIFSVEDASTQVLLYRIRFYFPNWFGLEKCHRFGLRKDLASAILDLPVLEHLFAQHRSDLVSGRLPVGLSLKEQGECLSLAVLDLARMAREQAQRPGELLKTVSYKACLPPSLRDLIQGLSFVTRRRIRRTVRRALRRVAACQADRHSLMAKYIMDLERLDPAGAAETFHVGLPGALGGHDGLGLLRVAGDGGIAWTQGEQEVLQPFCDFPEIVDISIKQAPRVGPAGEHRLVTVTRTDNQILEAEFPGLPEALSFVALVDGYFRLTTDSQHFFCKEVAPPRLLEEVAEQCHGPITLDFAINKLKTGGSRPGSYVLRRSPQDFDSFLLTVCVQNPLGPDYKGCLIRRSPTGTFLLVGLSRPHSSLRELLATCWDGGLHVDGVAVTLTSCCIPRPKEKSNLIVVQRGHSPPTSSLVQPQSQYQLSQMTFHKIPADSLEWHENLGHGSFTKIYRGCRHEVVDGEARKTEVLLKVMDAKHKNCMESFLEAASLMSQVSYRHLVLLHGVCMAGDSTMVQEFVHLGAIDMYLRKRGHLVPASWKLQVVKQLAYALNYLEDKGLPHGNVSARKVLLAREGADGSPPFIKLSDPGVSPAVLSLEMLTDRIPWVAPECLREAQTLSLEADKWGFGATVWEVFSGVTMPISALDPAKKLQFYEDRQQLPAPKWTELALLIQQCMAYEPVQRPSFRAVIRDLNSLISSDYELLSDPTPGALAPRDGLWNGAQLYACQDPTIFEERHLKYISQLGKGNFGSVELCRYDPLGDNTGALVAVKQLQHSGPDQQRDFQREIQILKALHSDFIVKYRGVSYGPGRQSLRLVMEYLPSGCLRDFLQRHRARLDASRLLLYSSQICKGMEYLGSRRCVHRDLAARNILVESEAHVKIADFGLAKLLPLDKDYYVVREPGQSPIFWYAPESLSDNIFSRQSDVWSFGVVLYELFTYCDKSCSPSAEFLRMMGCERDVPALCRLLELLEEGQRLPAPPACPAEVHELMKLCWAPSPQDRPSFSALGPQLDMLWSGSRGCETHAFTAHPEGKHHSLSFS

[11] = target: T3, Receptor-interacting serine/threonine-protein kinase 4 (Homo sapiens) (UniProt P57078); assay: Selectivity interaction (KinomeScan (DiscoverX)) EUB0000702a RIPK4; details: at 1 µM
T3 sequence (whole entry): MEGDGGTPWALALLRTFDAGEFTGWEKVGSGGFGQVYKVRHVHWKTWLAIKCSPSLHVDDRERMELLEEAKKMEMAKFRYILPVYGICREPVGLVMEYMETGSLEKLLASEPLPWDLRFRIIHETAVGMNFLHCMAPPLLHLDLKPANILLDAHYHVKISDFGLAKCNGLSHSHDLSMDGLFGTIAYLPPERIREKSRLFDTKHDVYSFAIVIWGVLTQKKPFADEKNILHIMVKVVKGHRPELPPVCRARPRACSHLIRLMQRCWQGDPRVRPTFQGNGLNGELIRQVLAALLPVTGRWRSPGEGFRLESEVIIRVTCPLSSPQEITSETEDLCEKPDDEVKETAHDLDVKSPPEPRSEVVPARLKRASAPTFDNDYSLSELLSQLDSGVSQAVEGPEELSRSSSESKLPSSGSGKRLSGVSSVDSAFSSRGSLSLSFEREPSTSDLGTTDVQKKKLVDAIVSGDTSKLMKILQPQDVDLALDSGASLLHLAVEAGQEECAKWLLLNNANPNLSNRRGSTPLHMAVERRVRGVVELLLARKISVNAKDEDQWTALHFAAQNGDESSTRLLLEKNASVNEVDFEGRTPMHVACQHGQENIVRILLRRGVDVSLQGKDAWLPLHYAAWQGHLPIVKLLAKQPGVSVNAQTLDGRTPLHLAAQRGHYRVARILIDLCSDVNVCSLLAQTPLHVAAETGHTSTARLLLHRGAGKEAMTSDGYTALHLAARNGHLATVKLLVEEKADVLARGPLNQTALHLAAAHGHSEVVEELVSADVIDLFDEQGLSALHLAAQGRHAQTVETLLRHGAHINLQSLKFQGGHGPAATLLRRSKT

Sequence of Tyrosine-protein kinase Lck (P06239 whole entry, looked up): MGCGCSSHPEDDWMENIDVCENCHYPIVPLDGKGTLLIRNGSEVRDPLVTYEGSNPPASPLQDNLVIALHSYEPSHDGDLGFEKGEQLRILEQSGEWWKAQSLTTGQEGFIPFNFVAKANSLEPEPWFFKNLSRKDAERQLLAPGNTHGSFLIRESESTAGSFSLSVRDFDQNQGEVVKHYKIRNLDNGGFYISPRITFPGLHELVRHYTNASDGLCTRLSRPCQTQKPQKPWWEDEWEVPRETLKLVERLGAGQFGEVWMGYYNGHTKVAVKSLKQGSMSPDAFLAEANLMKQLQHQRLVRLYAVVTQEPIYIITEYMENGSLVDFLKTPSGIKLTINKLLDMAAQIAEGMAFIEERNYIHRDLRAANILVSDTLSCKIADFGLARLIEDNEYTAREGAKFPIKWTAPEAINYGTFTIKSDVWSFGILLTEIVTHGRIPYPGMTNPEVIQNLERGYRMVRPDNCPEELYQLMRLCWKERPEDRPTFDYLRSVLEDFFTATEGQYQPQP
Sequence of Platelet-derived growth factor receptor beta (P09619 whole entry): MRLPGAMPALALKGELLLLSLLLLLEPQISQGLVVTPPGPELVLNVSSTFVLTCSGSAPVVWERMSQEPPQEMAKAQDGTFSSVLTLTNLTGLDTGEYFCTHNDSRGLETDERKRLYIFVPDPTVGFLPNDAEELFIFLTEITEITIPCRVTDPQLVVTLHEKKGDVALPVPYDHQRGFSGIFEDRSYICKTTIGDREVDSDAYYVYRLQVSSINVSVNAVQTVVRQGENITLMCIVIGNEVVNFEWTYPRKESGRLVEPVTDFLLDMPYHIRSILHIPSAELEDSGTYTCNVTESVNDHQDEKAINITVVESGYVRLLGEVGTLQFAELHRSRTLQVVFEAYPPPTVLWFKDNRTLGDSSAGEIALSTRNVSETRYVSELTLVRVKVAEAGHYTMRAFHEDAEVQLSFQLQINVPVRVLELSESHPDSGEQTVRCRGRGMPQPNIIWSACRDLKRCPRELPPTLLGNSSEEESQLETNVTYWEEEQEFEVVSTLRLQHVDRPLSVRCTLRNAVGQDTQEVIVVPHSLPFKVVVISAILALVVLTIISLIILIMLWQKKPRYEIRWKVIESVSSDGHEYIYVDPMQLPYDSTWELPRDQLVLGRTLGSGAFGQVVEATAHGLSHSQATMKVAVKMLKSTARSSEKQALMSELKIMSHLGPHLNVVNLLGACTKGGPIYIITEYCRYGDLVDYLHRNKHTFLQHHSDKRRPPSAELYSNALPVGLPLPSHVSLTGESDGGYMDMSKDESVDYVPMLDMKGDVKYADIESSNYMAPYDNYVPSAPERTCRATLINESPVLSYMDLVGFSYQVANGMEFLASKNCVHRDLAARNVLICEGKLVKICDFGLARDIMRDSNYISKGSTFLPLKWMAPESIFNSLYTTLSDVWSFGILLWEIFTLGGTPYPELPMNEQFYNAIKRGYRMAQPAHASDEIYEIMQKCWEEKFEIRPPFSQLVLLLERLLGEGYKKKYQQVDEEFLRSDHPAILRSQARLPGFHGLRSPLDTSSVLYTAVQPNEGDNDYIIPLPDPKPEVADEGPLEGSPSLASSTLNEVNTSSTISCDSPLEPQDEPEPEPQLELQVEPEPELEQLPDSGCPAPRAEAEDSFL
Sequence of 5'-AMP-activated protein kinase catalytic subunit alpha-1 (Q13131 whole entry, looked up): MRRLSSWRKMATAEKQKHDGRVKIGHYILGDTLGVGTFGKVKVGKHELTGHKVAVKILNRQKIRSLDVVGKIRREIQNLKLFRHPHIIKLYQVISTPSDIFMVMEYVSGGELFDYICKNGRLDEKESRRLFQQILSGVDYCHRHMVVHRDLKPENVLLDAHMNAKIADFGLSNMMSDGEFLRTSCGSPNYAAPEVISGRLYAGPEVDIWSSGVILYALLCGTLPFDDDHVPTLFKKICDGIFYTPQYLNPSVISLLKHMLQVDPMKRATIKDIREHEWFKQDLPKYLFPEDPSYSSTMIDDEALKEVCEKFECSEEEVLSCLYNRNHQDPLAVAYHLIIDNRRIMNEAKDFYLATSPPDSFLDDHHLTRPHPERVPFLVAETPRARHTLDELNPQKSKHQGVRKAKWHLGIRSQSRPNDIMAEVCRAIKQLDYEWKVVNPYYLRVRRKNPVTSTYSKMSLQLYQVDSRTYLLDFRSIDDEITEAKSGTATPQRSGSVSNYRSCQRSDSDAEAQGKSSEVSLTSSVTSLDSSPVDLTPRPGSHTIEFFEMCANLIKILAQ
Sequence of Serine/threonine-protein kinase 16 (O75716 whole entry): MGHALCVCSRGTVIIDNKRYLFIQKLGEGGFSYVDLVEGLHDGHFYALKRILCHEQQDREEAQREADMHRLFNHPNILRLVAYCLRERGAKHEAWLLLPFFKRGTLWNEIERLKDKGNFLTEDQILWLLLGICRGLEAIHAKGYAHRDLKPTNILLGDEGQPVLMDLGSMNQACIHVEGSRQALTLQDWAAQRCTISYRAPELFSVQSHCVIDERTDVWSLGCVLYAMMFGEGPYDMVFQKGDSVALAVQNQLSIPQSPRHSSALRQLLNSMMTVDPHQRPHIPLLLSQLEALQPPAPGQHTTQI
Sequence of Tyrosine-protein kinase receptor Tie-1 (Homo sapiens) (P35590 whole entry): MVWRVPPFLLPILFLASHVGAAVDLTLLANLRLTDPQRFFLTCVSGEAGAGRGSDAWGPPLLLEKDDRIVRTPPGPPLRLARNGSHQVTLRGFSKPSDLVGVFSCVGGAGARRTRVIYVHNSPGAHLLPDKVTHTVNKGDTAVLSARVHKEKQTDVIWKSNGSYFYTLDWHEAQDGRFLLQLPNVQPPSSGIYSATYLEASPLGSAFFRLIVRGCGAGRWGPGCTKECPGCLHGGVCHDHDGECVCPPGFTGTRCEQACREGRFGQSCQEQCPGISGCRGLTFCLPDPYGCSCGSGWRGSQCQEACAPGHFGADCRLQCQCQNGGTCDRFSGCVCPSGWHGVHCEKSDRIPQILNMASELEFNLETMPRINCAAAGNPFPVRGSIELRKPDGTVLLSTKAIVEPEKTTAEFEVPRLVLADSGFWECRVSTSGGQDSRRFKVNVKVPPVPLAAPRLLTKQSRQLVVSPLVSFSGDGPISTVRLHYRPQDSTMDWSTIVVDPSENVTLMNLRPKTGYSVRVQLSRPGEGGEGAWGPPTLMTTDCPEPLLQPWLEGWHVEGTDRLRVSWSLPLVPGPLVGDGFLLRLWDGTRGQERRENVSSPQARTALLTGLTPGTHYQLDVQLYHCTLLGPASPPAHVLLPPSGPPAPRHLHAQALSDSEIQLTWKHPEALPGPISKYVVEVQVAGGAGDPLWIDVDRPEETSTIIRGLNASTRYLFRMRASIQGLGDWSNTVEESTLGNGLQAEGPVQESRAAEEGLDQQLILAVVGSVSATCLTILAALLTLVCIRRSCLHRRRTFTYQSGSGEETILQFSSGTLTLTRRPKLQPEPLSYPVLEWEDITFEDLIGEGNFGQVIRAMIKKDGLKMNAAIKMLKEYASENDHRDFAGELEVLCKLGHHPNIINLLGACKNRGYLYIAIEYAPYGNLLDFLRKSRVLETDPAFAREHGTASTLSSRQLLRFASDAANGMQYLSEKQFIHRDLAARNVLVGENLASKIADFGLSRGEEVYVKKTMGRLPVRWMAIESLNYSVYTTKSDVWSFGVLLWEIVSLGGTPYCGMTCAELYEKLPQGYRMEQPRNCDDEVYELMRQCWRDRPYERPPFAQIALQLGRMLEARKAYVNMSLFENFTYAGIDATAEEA
Sequence of BMP-2-inducible protein kinase (Homo sapiens) (Q9NSY1 whole entry, looked up): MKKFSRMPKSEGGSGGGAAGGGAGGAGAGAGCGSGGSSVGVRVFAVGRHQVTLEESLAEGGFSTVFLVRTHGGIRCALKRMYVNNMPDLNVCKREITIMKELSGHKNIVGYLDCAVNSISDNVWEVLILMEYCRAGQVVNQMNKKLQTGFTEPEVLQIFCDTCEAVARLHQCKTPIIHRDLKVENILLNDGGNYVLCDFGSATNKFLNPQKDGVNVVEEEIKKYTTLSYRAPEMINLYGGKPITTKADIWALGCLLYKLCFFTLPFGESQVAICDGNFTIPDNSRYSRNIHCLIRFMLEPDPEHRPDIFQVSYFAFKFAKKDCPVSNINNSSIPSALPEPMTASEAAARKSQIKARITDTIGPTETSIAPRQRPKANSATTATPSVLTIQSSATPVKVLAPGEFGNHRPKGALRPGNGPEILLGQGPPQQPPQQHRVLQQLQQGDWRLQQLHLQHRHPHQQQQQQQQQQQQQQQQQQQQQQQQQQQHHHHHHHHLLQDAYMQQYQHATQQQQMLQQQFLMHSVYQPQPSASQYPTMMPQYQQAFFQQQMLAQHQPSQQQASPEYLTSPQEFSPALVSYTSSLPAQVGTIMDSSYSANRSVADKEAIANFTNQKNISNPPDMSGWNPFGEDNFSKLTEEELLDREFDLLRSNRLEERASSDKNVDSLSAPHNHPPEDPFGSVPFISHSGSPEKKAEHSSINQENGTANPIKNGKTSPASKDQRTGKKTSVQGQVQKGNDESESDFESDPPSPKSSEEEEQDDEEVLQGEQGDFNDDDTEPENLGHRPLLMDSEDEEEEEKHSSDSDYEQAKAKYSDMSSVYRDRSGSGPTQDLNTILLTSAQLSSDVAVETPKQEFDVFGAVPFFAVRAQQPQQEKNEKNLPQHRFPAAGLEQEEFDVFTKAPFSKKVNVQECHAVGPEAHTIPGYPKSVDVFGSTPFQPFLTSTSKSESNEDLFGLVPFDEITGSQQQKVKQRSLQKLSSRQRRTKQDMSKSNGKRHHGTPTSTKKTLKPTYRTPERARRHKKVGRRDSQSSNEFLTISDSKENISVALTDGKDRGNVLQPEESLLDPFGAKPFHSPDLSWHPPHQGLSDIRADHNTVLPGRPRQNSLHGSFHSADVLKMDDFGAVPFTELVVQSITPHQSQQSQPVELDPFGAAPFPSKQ

SMILES: CN1C(=O)c2sccc2N(C)c2nc(Nc3ccc(S(N)(=O)=O)cc3)ncc21
% of control [1]: 0.05%

SMILES: CCOc1cn(-c2ccc(F)cc2C)nc1C(=O)Nc1ccc(Oc2ccnc3cc(OC)c(OC)cc23)c(F)c1
% of control [2]: < 10%
% of control [3]: < 10%
% of control [4]: < 10%
% of control [5]: < 10%

SMILES: COc1cc2ncn(-c3cc(OCc4ccccc4C(F)(F)F)c(C(N)=O)s3)c2cc1OC [GW843682X]
% of control [6]: 1%
% of control [7]: 10%

SMILES: CC[C@@H]1C(=O)N(C)c2cnc(Nc3ccc(C(=O)NC4CCN(C)CC4)cc3OC)nc2N1C1CCCC1
% of control [8]: 89%

Second part, the molecule after the results:

% of control [9]: 7.7%
SMILES: CNC(=O)c1ccc(Nc2ncc(C(F)(F)F)c(NCc3nccnc3N(C)S(C)(=O)=O)n2)cc1 [DEFACTINIB]

% of control [10]: 1.9%
% of control [11]: 6%
SMILES: CN(c1ccnc(CNc2nc(Nc3ccc4c(c3)CC(=O)N4)ncc2C(F)(F)F)n1)S(C)(=O)=O [PF-00911705]
